Test results published in ChEMBL document CHEMBL1122367, “Synthesis and antihypertensive activity of a series of spiro[1,3,4,6,7,11b-hexahydro-2H-benzo[a]quinolizine-2,5'-oxazolidin-2'-one]s” (1983).
The source made the active and inactive calls. The rule behind the calls is not given here.

Experiments:
Rattus norvegicus [1] = assay: Antihypertensive activity as percentage fall in systolic blood pressure in spontaneously hypertensive rats 3h after 0.31 mg/kg po administration; type: functional, Artery
Rattus norvegicus [2] = assay: Antihypertensive activity as percentage fall in systolic blood pressure in spontaneously hypertensive rats 2 hr after 0.31 mg/kg po administration; type: functional, Artery
Rattus norvegicus [3] = assay: Antihypertensive activity as percentage fall in systolic blood pressure in spontaneously hypertensive rats 4 hr after 1.25 mg/kg po administration
Rattus norvegicus [4] = assay: Antihypertensive activity as percentage fall in systolic blood pressure in spontaneously hypertensive rats 3h after 1.25 mg/kg po administration
Rattus norvegicus [5] = assay: Antihypertensive activity as percentage fall in systolic blood pressure in spontaneously hypertensive rats 1 hr after 0.31 mg/kg po administration; type: functional, Artery
Rattus norvegicus [6] = assay: Antihypertensive activity as percentage fall in systolic blood pressure in spontaneously hypertensive rats 2 hr after 1.25 mg/kg po administration
Rattus norvegicus [7] = assay: Antihypertensive activity as percentage fall in systolic blood pressure in spontaneously hypertensive rats 4 hr after 0.31 mg/kg po administration; type: functional, Artery
Rattus norvegicus [8] = assay: Antihypertensive activity as percentage fall in systolic blood pressure in spontaneously hypertensive rats 1 hr after 1.25 mg/kg po administration
Rattus norvegicus [9] = assay: Antihypertensive activity as percentage fall in systolic blood pressure in spontaneously hypertensive rats 4 hr after 50 mg/kg po administration; type: functional, Artery
Rattus norvegicus [10] = assay: Antihypertensive activity as percentage fall in systolic blood pressure in spontaneously hypertensive rats 1 hr after 25 mg/kg po administration;NS means nonsignificant difference between treated and control group; type: functional, organism-based; design: dose 25 mg/kg; conditions: Artery, at 25 mg/kg
Rattus norvegicus [11] = assay: Antihypertensive activity as percentage fall in systolic blood pressure in spontaneously hypertensive rats 1 hr after 50 mg/kg po administration; type: functional, Artery
Rattus norvegicus [12] = assay: Percentage fall in systolic blood pressure in spontaneously hypertensive rats 3h after 50 mg/kg p.o. administration; Not significant.; type: functional, organism-based; design: dose 50 mg/kg; conditions: Artery, at 50 mg/kg
Rattus norvegicus [13] = assay: Percentage fall in systolic blood pressure in spontaneously hypertensive rats 2 hr after 50 mg/kg p.o. administration.; type: functional, Artery; conditions: route oral
Rattus norvegicus [14] = assay: Antihypertensive activity as percentage fall in systolic blood pressure in spontaneously hypertensive rats 4 hr after 25 mg/kg po administration;NS means nonsignificant difference between treated and control group; type: functional, organism-based; design: dose 25 mg/kg; conditions: Artery, at 25 mg/kg
Rattus norvegicus [15] = assay: Antihypertensive activity as percentage fall in systolic blood pressure in spontaneously hypertensive rats 2 hr after 25 mg/kg po administration;NS means nonsignificant difference between treated and control group; type: functional, organism-based; design: dose 25 mg/kg; conditions: Artery, at 25 mg/kg
Rattus norvegicus [16] = assay: Antihypertensive activity as percentage fall in systolic blood pressure in spontaneously hypertensive rats 3h after 25 mg/kg po administration; type: functional
Rattus norvegicus [17] = assay: Antihypertensive activity as percentage fall in systolic blood pressure in spontaneously hypertensive rats 3h after 25 mg/kg po administration;NS means nonsignificant difference between treated and control group; type: functional, organism-based; design: dose 25 mg/kg; conditions: Artery, at 25 mg/kg
Rattus norvegicus [18] = assay: Percentage fall in systolic blood pressure in spontaneously hypertensive rats 1 hr after 50 mg/kg p.o. administration; Not significant.; type: functional, organism-based; design: dose 50 mg/kg; conditions: Artery, at 50 mg/kg
Rattus norvegicus [19] = assay: Antihypertensive activity as percentage fall in systolic blood pressure in spontaneously hypertensive rats 4 hr after 50 mg/kg po administration; NS means nonsignificant difference between treated and control group; type: functional, organism-based; design: dose 50 mg/kg; conditions: Artery, at 50 mg/kg
Rattus norvegicus [20] = assay: Percentage fall in systolic blood pressure in spontaneously hypertensive rats 2 hr after 50 mg/kg p.o. administration; Not significant.; type: functional, organism-based; design: dose 50 mg/kg; conditions: Artery, at 50 mg/kg
Rattus norvegicus [21] = assay: Antihypertensive activity as percentage fall in systolic blood pressure in spontaneously hypertensive rats 4 hr after 25 mg/kg po administration; type: functional, Artery
Rattus norvegicus [22] = assay: Antihypertensive activity as percentage fall in systolic blood pressure in spontaneously hypertensive rats 2 hr after 25 mg/kg po administration; type: functional, Artery
Rattus norvegicus [23] = assay: Antihypertensive activity as percentage fall in systolic blood pressure in spontaneously hypertensive rats 1 hr after 25 mg/kg po administration; type: functional, Artery
Rattus norvegicus [24] = assay: Antihypertensive activity as percentage fall in systolic blood pressure in spontaneously hypertensive rats 3h after 50 mg/kg po administration; type: functional, Artery
Rattus norvegicus [25] = assay: Antihypertensive activity as percentage fall in systolic blood pressure in spontaneously hypertensive rats 4 hr after 12.5 mg/kg po administration;NS means nonsignificant difference between treated and control group; type: functional, organism-based; design: dose 12.5 mg/kg; conditions: Artery, at 12.5 mg/kg
Rattus norvegicus [26] = assay: Antihypertensive activity as percentage fall in systolic blood pressure in spontaneously hypertensive rats 3h after 12.5 mg/kg po administration;NS means nonsignificant difference between treated and control group; type: functional, organism-based; design: dose 12.5 mg/kg; conditions: Artery, at 12.5 mg/kg
Rattus norvegicus [27] = assay: Antihypertensive activity as percentage fall in systolic blood pressure in spontaneously hypertensive rats 2 hr after 12.5 mg/kg po administration;NS means nonsignificant difference between treated and control group; type: functional, organism-based; design: dose 12.5 mg/kg; conditions: Artery, at 12.5 mg/kg
Rattus norvegicus [28] = assay: Antihypertensive activity as percentage fall in systolic blood pressure in spontaneously hypertensive rats 1 hr after 12.5 mg/kg po administration;NS means nonsignificant difference between treated and control group; type: functional, organism-based; design: dose 12.5 mg/kg; conditions: Artery, at 12.5 mg/kg

For `COc1cc2nc(N3CCN(C(=O)c4ccco4)CC3)nc(N)c2cc1OC` [PRAZOSIN], the Fall (Rattus norvegicus [1]) was 21%, the Fall (Rattus norvegicus [2]) was 31% and the Fall (Rattus norvegicus [3]) was 31%. The Fall (Rattus norvegicus [4]) was 36%, the Fall (Rattus norvegicus [5]) was 19% and the Fall (Rattus norvegicus [6]) was 46%. The Fall (Rattus norvegicus [7]) was 26% and the Fall (Rattus norvegicus [8]) was 26%.

With `CCN1C[C@]2(CCN3CCc4cc(OC)c(OC)cc4[C@@H]3C2)OC1=O` the Fall (Rattus norvegicus [9]) was 18%, the Fall (Rattus norvegicus [10]) was “Not significant” and the Fall (Rattus norvegicus [11]) was 43%. The Fall (Rattus norvegicus [12]) was “Not significant”, the Fall (Rattus norvegicus [13]) was 30% and the Fall (Rattus norvegicus [14]) was “Not significant”. For the same molecule, the Fall (Rattus norvegicus [15]) was “Not significant” and the Fall (Rattus norvegicus [16]; Artery, at 25 mg/kg) was “Not significant”.

With `CC[C@H]1CN2CCc3cc(OC)c(OC)cc3[C@@H]2C[C@]12CNC(=O)O2` the Fall (Rattus norvegicus [17]) was “Not significant”, the Fall (Rattus norvegicus [18]) was “Not significant” and the Fall (Rattus norvegicus [19]) was “Not significant”. The Fall (Rattus norvegicus [12]) was “Not significant”, the Fall (Rattus norvegicus [20]) was “Not significant” and the Fall (Rattus norvegicus [14]) was “Not significant”.

In the case of `COc1cc2c(cc1OC)[C@@H]1C[C@]3(CNC(=O)O3)[C@@H](C)CN1CC2`, the Fall (Rattus norvegicus [21]) is reported as 15%, the Fall (Rattus norvegicus [9]) is reported as 25% and the Fall (Rattus norvegicus [17]) is reported as “Not significant”. It also gave a Fall (Rattus norvegicus [11]) of 47%, a Fall (Rattus norvegicus [13]) of 41% and a Fall (Rattus norvegicus [22]) of 19%. The Fall (Rattus norvegicus [23]) was 27% and the Fall (Rattus norvegicus [24]) was 37%.

With `O=C1NC[C@@]2(CCN3CCc4ccccc4[C@@H]3C2)O1` the Fall (Rattus norvegicus [21]) was 25%, the Fall (Rattus norvegicus [9]) was 12% and the Fall (Rattus norvegicus [17]) was “Not significant”. For the same molecule, the Fall (Rattus norvegicus [11]) was 22%, the Fall (Rattus norvegicus [13]) was 26% and the Fall (Rattus norvegicus [23]) was 20%. For the same molecule, the Fall (Rattus norvegicus [15]) was “Not significant” and the Fall (Rattus norvegicus [24]) was 14%.

`O=C(NC1CCN(CCc2c[nH]c3ccccc23)CC1)c1ccccc1` [INDORAMIN] was tested, and the Fall (Rattus norvegicus [25]) was “inactive”, the Fall (Rattus norvegicus [21]) was 30% and the Fall (Rattus norvegicus [26]) was “inactive”. The Fall (Rattus norvegicus [22]) was 28%, the Fall (Rattus norvegicus [23]) was 27% and the Fall (Rattus norvegicus [27]) was “inactive”. The Fall (Rattus norvegicus [28]) was “inactive” and the Fall (Rattus norvegicus [16]) was 34%.
